Source: patent US20250186541A1, “DLL3 TARGETING PEPTIDES AND CONSTRUCTS THEREOF” (MARIANA ONCOLOGY INC., priority 2023, published 2025)
pKd: −log10 of the molar value. Numbered stars: 1 amine (or outer) side, 2 acyl side, 3 side chain; on linkers, the order of the positions; unused ones are H or OH. Bridge positions count the residues as written; N and C are the ends. Square brackets hold non-standard residues; d marks the D form. Peptide text beside a SMILES is read from it. * marks the point of attachment. X2 = O=C(O)CN1CCN(CC(=O)O)CCN(CC(=O)N[C@@H](CCCCN*)C(=O)O)CCN(CC(=O)O)CC1; Ala(piperidin-4-yl) = O=C([C@H](CC1CCN([*:3])CC1)N[*:1])[*:2]; DOTA = O=C(O)CN1CCN(CC(=O)O)CCN(CC(=O)*)CCN(CC(=O)O)CC1; Phe(4-CH2NH2) = NCc1ccc(C[C@H](N)C(=O)O)cc1; 1Nal = N[C@@H](Cc1cccc2ccccc12)C(=O)O; 2Nal = N[C@@H](Cc1ccc2ccccc2c1)C(=O)O; Ala(4-THP) = N[C@@H](CC1CCOCC1)C(=O)O; Phe(2-Me) = Cc1ccccc1C[C@H](N)C(=O)O; tBuAla = CC(C)(C)C[C@H](N)C(=O)O; 3Pal = N[C@@H](Cc1cccnc1)C(=O)O; dAllylGly = C=CC[C@@H](N)C(=O)O; αMeD = C[C@](N)(CC(=O)O)C(=O)O; AllylGly = C=CC[C@H](N)C(=O)O; Chg = N[C@H](C(=O)O)C1CCCCC1; αMeP = C[C@@]1(C(=O)O)CCCN1; Pip = O=C(O)[C@@H]1CCCCN1

Each compound was assayed against T1, human DLL3 (Homo sapiens, UniProt Q9NYJ7) (assay: Affinity determination by Surface Plasmon Resonance (SPR), Biacore, 1:1 binding model). Conditions: biotinylated human DLL3 on streptavidin chip, 25° C.; NB = nonbinding.
T1 construct: biotin (biotinylated)
T1 sequence (Q9NYJ7 27-618): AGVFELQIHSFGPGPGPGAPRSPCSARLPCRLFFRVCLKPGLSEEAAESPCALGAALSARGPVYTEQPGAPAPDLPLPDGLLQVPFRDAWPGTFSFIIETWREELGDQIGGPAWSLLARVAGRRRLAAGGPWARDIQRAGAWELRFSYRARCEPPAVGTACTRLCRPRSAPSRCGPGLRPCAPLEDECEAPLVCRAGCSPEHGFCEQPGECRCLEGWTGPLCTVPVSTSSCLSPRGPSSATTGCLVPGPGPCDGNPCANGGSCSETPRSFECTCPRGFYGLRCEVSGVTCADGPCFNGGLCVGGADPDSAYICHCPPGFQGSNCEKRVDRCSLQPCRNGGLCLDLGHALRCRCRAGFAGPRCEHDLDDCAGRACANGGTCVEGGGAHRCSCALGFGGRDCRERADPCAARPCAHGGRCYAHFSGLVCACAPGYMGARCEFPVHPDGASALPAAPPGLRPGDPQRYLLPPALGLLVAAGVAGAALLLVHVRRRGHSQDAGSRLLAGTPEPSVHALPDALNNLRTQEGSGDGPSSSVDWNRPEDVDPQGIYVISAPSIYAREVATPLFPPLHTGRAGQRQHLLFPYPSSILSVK
Outline: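 SPR with biotinylated human DLL3 captured on a streptavidin chip, with a reference surface subtracted. Samples were injected at several concentrations at 100 μL/min in phosphate buffer with 137 mM NaCl, 2.7 mM KCl, 0.05% P20 and 2% DMSO. Kinetic and affinity constants came from a 1:1 binding fit.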

| pKd | SPR KD (nM) | Structure (SMILES) |
| --- | --- | --- |
| 9.42 |  | CC(=O)N[C@H](C(=O)N[C@@H](CO)C(=O)N[C@@H](CC(=O)O)C(=O)N[C@H]1CSSC[C@@H](C(=O)N2CCC[C@H]2C(=O)N[C@@H](Cc2ccccc2)C(=O)N[C@@H](CC(=O)O)C(=O)N[C@H](CCCCNC(=O)CN2CCN(CC(=O)O)CCN(CC(=O)O)CCN(CC(=O)O)CC2)C(N)=O)NC(=O)[C@H](CC(N)=O)NC(=O)[C@H](Cc2ccc3ccccc3c2)NC(=O)[C@H](CCC(N)=O)NC(=O)[C@H](CC(C)C)NC(=O)[C@H](Cc2cccc3ccccc23)NC1=O)C1CCCCC1 [compound 114, Ac-(Chg)-S-D-C(3)-(1Nal)-L-Q-(2Nal)-N-C(3)-P-F-D-D-Lys(DOTA)-CONH2] (Ac-[Chg]SDC[1Nal]LQ[2Nal]NCPFD[dK](DOTA)-NH2; disulfide 4-10) |
| 9.23 |  | CC(=O)N[C@@H](CC1CCNCC1)C(=O)N[C@@H](CO)C(=O)N[C@@H](CC(=O)O)C(=O)N[C@H]1CCCC[C@@H](C(=O)N2CCC[C@@]2(C)C(=O)N[C@@H](Cc2ccccc2)C(=O)N[C@@H](CC(=O)O)C(N)=O)NC(=O)[C@H](CC(N)=O)NC(=O)[C@H](Cc2ccc3ccccc3c2)NC(=O)[C@H](Cc2ccc(CNC(=O)CN3CCN(CC(=O)O)CCN(CC(=O)O)CCN(CC(=O)O)CC3)cc2)NC(=O)[C@H](CC(C)(C)C)NC(=O)[C@H](Cc2cccc3ccccc23)NC1=O [compound 209, Ac-[3-(4-piperidinyl)-Ala]-S-D-AllyG(4)*-(1Nal)-(t-Bu-Ala)-[PAF(DOTA)]-(2Nal)-N-AllyG(4)*-(aMe-P)-F-D-CONH2] |
| 7.96 |  | CSCC[C@H](NC(C)=O)C(=O)N[C@@H](CO)C(=O)N[C@@H](CC(=O)O)C(=O)N[C@H]1CSSC[C@@H](C(=O)N2CCC[C@H]2C(=O)N[C@@H](Cc2ccccc2)C(=O)N[C@@H](CC(=O)O)C(N)=O)NC(=O)[C@H](CC(N)=O)NC(=O)[C@H](Cc2c[nH]c3ccccc23)NC(=O)[C@H](CCC(N)=O)NC(=O)[C@H](CC(C)C)NC(=O)[C@H](Cc2c[nH]c3ccccc23)NC1=O [Cpd #1, Ac-M-S-D-C(3)-W-L-Q-W-N-C(3)-P-F-D-CONH2] (Ac-MSDCWLQWNCPFD-NH2; disulfide 4-10) |
| 7.66 |  | CC(=O)N[C@H](C(=O)N[C@@H](CO)C(=O)N[C@@H](CC(=O)O)C(=O)N[C@H]1CSSC[C@@H](C(=O)N2CCC[C@@]2(C)C(=O)N[C@@H](Cc2cccnc2)C(=O)N[C@@H](CC(=O)O)C(=O)N[C@H](CCCCNC(=O)CN2CCN(CC(=O)O)CCN(CC(=O)O)CCN(CC(=O)O)CC2)C(N)=O)NC(=O)[C@H](CC(N)=O)NC(=O)[C@H](Cc2c[nH]c3ccccc23)NC(=O)[C@H](CCC(N)=O)NC(=O)[C@H](CC(C)C)NC(=O)[C@H](Cc2cccc3ccccc23)NC1=O)C1CCCCC1 [compound 136, Ac-(Chg)-S-D-C(3)-(1Nal)-L-Q-W-N-C(3)-(aMe-P)-(3Pya)-D-[D-Lys(DOTA)]-NH2] (Ac-[Chg]SDC[1Nal]LQWNC[αMeP][3Pal]D[dK](DOTA)-NH2; disulfide 4-10) |
| 8.78 |  | C[C@@H](NC(=O)CN1CCN(CC(=O)O)CCN(CC(=O)O)CCN(CC(=O)O)CC1)C(=O)N[C@@H](CO)C(=O)N[C@@](C)(CC(=O)O)C(=O)N[C@H]1C/C=C/C[C@@H](C(=O)N2CCC[C@@]2(C)C(=O)N[C@@H](Cc2ccccc2)C(=O)N[C@@H](CC(=O)O)C(N)=O)NC(=O)[C@H](CC(N)=O)NC(=O)[C@H](Cc2ccc3ccccc3c2)NC(=O)[C@H](CC2CCNCC2)NC(=O)[C@H](CC(C)(C)C)NC(=O)[C@H](Cc2cccc3ccccc23)NC1=O [compound 197, DOTA-(D-Ala)-S-(aMe-Asp)-AllyG(4)-(1Nal)-(t-Bu-Ala)-[3-(4-piperidinyl)-Ala]-(2Nal)-N-AllyG(4)-(aMe-P)-F-D-CONH2] ({DOTA}-[dA]S[αMeD][AllylGly][1Nal][tBuAla][Ala(piperidin-4-yl)][2Nal]N[AllylGly][αMeP]FD-NH2; staple (E) 4-10) |
|  | slow kon | CC(=O)N[C@H](C(=O)N[C@@H](CO)C(=O)N[C@@H](CC(=O)O)C(=O)N[C@H]1CSSC[C@@H](C(=O)N2CCC[C@@]2(C)C(=O)N[C@@H](Cc2ccccc2)C(=O)N[C@@H](CC(=O)O)C(=O)N[C@H](CCCCNC(=O)CN2CCN(CC(=O)O)CCN(CC(=O)O)CCN(CC(=O)O)CC2)C(N)=O)NC(=O)[C@H](CC(N)=O)NC(=O)[C@H](Cc2ccc3ccccc3c2)NC(=O)[C@H](CCC(N)=O)NC(=O)[C@@H]2CCCCN2C(=O)[C@H](Cc2cccc3ccccc23)NC1=O)C1CCCCC1 [compound 130, Ac-(Chg)-S-D-C(3)-(1Nal)-(PIP)-Q-(2Nal)-N-C(3)-(aMe-P)-F-D-D-Lys(DOTA)-CONH2] (Ac-[Chg]SDC[1Nal][Pip]Q[2Nal]NC[αMeP]FD[dK](DOTA)-NH2; disulfide 4-10) |
| 9.29 |  | CC(=O)N[C@H](C)C(=O)N[C@@H](CO)C(=O)N[C@@H](CC(=O)O)C(=O)N[C@H]1CSSC[C@@H](C(=O)N2CCC[C@@]2(C)C(=O)N[C@@H](Cc2ccccc2C)C(=O)N[C@@H](CC(=O)O)C(N)=O)NC(=O)[C@H](CC(N)=O)NC(=O)[C@H](Cc2ccc3ccccc3c2)NC(=O)[C@H](CCC(=O)NCCCC[C@H](NC(=O)CN2CCN(CC(=O)O)CCN(CC(=O)O)CCN(CC(=O)O)CC2)C(=O)O)NC(=O)[C@H](CC(C)(C)C)NC(=O)[C@H](Cc2cccc3ccccc23)NC1=O [Cpd #153, Ac-(D-Ala)-S-D-C(3)-(1Nal)-(t-Bu-Ala)-[Glu(εLys(OH)-(DOTA))]-(2Nal)-N-C(3)-(aMe-P)-(2Me-F)-D-CONH2] (Ac-[dA]SDC[1Nal][tBuAla]E(X2)[2Nal]NC[αMeP][Phe(2-Me)]D-NH2; disulfide 4-10) |
| < 7.00 |  | CC(=O)N[C@@H](CC1CCNCC1)C(=O)N[C@@H](CO)C(=O)N[C@@H](CC(=O)O)C(=O)N[C@H]1C/C=C\C[C@H](C(=O)N2CCC[C@@]2(C)C(=O)N[C@@H](Cc2ccccc2)C(=O)N[C@@H](CC(=O)O)C(N)=O)NC(=O)[C@H](CC(N)=O)NC(=O)[C@H](Cc2ccc3ccccc3c2)NC(=O)[C@H](Cc2ccc(CNC(=O)CN3CCN(CC(=O)O)CCN(CC(=O)O)CCN(CC(=O)O)CC3)cc2)NC(=O)[C@H](CC(C)(C)C)NC(=O)[C@H](Cc2cccc3ccccc23)NC1=O [compound 211, Ac-[3-(4-piperidinyl)-Ala]-S-D-AllyG(4)-(1Nal)-(t-Bu-Ala)-[PAF(DOTA)]-(2Nal)-N-D-AllyG(4)-(aMe-P)-F-D-CONH2] (Ac-[Ala(piperidin-4-yl)]SD[AllylGly][1Nal][tBuAla][Phe(4-CH2NH2)](DOTA)[2Nal]N[dAllylGly][αMeP]FD-NH2; staple (Z) 4-10) |
| < 7.00 |  | CSCC[C@H](NC(C)=O)C(=O)N[C@@H](CO)C(=O)N[C@@H](CC(=O)O)C(=O)N[C@H]1CSSC[C@@H](C(=O)N2CCC[C@H]2C(=O)N[C@@H](Cc2ccccc2)C(=O)N[C@@H](CC(=O)O)C(N)=O)NC(=O)[C@H](CC(N)=O)NC(=O)[C@H](Cc2c[nH]c3ccccc23)NC(=O)[C@@H](C)NC(=O)[C@H](CC(C)C)NC(=O)[C@H](Cc2c[nH]c3ccccc23)NC1=O [compound 13, Ac-M-S-D-C(3)-W-L-(D-Ala)-W-N-C(3)-P-F-D-CONH2] (Ac-MSDCWL[dA]WNCPFD-NH2; disulfide 4-10) |
| < 7.00 |  | CC(=O)N[C@H](C(=O)N[C@@H](CO)C(=O)N[C@@H](CC(=O)O)C(=O)N[C@H]1CSSC[C@@H](C(=O)N2CCC[C@H]2C(=O)N[C@@H](CCCCNC(=O)CN2CCN(CC(=O)O)CCN(CC(=O)O)CCN(CC(=O)O)CC2)C(=O)N[C@@H](CC(=O)O)C(N)=O)NC(=O)[C@H](CC(N)=O)NC(=O)[C@H](Cc2c[nH]c3ccccc23)NC(=O)[C@H](CCC(N)=O)NC(=O)[C@H](CC(C)C)NC(=O)[C@H](Cc2c[nH]c3ccccc23)NC1=O)C1CCCCC1 [compound 102, Ac-(Chg)-S-D-C(3)-W-L-Q-W-N-C(3)-P-[L-Lys(DOTA)]-D-CONH2] (Ac-[Chg]SDCWLQWNCPK(DOTA)D-NH2; disulfide 4-10) |
| 8.45 |  | CC(=O)N[C@H](C(=O)N[C@@H](CO)C(=O)N[C@@H](CC(=O)O)C(=O)N[C@H]1CSSC[C@@H](C(=O)N2CCC[C@@]2(C)C(=O)N[C@@H](Cc2ccccc2)C(=O)N[C@@H](CC(=O)O)C(=O)N[C@H](CCCCNC(=O)CN2CCN(CC(=O)O)CCN(CC(=O)O)CCN(CC(=O)O)CC2)C(N)=O)NC(=O)[C@H](CC2CCOCC2)NC(=O)[C@H](Cc2c[nH]c3ccccc23)NC(=O)[C@H](CCC(N)=O)NC(=O)[C@H](CC(C)C)NC(=O)[C@H](Cc2cccc3ccccc23)NC1=O)C1CCCCC1 [compound 134, Ac-(Chg)-S-D-C(3)-(1Nal)-L-Q-W-(THPA)-C(3)-(aMe-P)-F-D-[D-Lys(DOTA)]-NH2] (Ac-[Chg]SDC[1Nal]LQW[Ala(4-THP)]C[αMeP]FD[dK](DOTA)-NH2; disulfide 4-10) |
| 9.47 |  | CC(=O)N[C@H](C(=O)N[C@@H](CO)C(=O)N[C@@H](CC(=O)O)C(=O)N[C@H]1CSSC[C@@H](C(=O)N2CCC[C@@]2(C)C(=O)N[C@@H](Cc2ccccc2)C(=O)N[C@@H](CC(=O)O)C(=O)N[C@H](CCCCNC(=O)CN2CCN(CC(=O)O)CCN(CC(=O)O)CCN(CC(=O)O)CC2)C(N)=O)NC(=O)[C@H](CC(N)=O)NC(=O)[C@H](Cc2c[nH]c3ccccc23)NC(=O)[C@H](CCC(N)=O)NC(=O)[C@H](C2CCCCC2)NC(=O)[C@H](Cc2cccc3ccccc23)NC1=O)C1CCCCC1 [compound 123, Ac-(Chg)-S-D-C(3)-(1Nal)-Chg-Q-W-N-C(3)-(aMe-P)-F-D-D-Lys(DOTA)-CONH2] (Ac-[Chg]SDC[1Nal][Chg]QWNC[αMeP]FD[dK](DOTA)-NH2; disulfide 4-10) |
